In patent US20230233492A1, “PHARMACEUTICAL COMBINATION COMPRISING A BRAIN AMINOPEPTIDASE A INHIBITOR, A DIURETIC AND A BLOCKER OF THE SYSTEMIC RENIN-ANGIOTENSIN SYSTEM” (QUANTUM GENOMICS, priority 2020, published 2023):

Tests used:
[1] = tested on: conscious hypertensive DOCA-salt rats; assay: Acute oral administration: MABP and HR recording in conscious freely moving DOCA-salt rats; format: in vivo, rat; conditions: single oral administration
Procedure: Male deoxycorticosterone acetate (DOCA)-salt rats weighing 250 to 350 g were purchased from Charles River Laboratories (L'Arbresle, France). Animals were randomly assigned in each group with allocation concealment, and blinding procedures were used with coding systemAnimal care and surgical procedures were performed according to the Directive 2010/63/EU. The project was submitted to the appropriate ethics committee and authorization was obtained: 30 CEEA No 59, reference number 01962.01. Animals were kept under artificial light (12 h light/12 h dark cycle) with ad libitum access to a standard diet and saline water (0.9% NaCl, 0.2% KCl).
Male DOCA-salt rats were anesthetized with 3% isoflurane (Iso-Vet®, Piramal, UK) for induction and 1.5-2% isoflurane for maintenance. A catheter (0.011″X.024″X.0065″) was inserted into the right femoral artery to monitor mean arterial blood pressure (MABP) and heart rate (HR). The catheters were tunneled subcutaneously to exit from the neck. Animals were allowed to recover from surgery for at least 48 h before MABP recording. Baseline MABP was recorded before drug administration during 30 minutes to 1 hour. One hour after the start of BP recording, firibastat (30 mg/kg), enalapril (5 or 10 mg/kg) and HCTZ (5 or 10 mg/kg) alone or in combination at different doses were administered to the conscious unrestrained rats by oral route. After compound administration, BP was monitored for 6 hours. MABP was calculated with the […] system (Phymep, Paris, France), consisting of a MatLab hardware unit and CHART software, running on a Macintosh computer. MABP and HR measurements were calculated by the BP signal.

[2] = tested on: hypertensive patients; conditions: monotherapy; mild to moderate hypertensive patients and diverse high-risk hypertensive population; cited from earlier work
[3] = tested on: conscious hypertensive deoxycorticosterone acetate (DOCA) salt rats; conditions: oral administrations, 15 to 150 mg/kg; cited from earlier work
[4] = tested on: spontaneously hypertensive rats (SHRs); conditions: oral administrations, 15 to 150 mg/kg; cited from earlier work

## CCOC(=O)[C@H](CCc1ccccc1)N[C@@H](C)C(=O)N1CCC[C@H]1C(=O)O [enalapril]
[1]; enalapril 10 mg/kg alone
  change in BP: did not induce any significant change in BP

## NS(=O)(=O)c1cc2c(cc1Cl)NCNS2(=O)=O [HCTZ, hydrochlorothiazide]
[1]; HCTZ 10 mg/kg alone
  change in BP: did not induce any significant change in BP

## N[C@@H](CCS(=O)(=O)O)CSSC[C@@H](N)CCS(=O)(=O)O [firibastat, (3S,3S′) 4,4′-disulfanediylbis(3-aminobutane 1-sulfonic acid)]
[1]; firibastat 30 mg/kg alone, 5 h post-dosing
  decrease in BP (change in MABP from baseline): −35.4±5.2 mmHg
[2]
  effect on BP: lower BP
[3]
  effect on BP: dose-dependent decrease in BP
[4]
  effect on BP: dose-dependent decrease in BP
